Assay results taken from ChEMBL document CHEMBL5034011, “Discovery and Optimization of a 4-Aminopiperidine Scaffold for Inhibition of Hepatitis C Virus Assembly” (J Med Chem, 2021).
≈ marks a conversion by molar mass, not a printed value.

Key:
[1] = Tmax in CD-1 mouse plasma at 10 mg/kg; format: ADME, organism-based
[2] = AUClast in CD-1 mouse plasma at 10 mg/kg; format: ADME, organism-based; set-up: time 0 - last, dose 10 mg/kg
[3] = Ratio of AUClast in liver to plasma in CD-1 mouse at 10 mg/kg; format: ADME, organism-based
[4] = AUClast in CD-1 mouse liver at 10 mg/kg; format: ADME, organism-based; set-up: time 0 - last, dose 10 mg/kg
[5] = Tmax in CD-1 mouse brain at 10 mg/kg; format: ADME, organism-based
[6] = Tmax in CD-1 mouse liver at 10 mg/kg; format: ADME, organism-based
[7] = AUClast in CD-1 mouse brain at 10 mg/kg; format: ADME, organism-based; set-up: time 0 - last, dose 10 mg/kg
[8] = Ratio of AUClast in brain to plasma in CD-1 mouse at 10 mg/kg; format: ADME, organism-based
[9] = Permeability of the compound by PAMPA method; format: ADME; conditions: for Papp: read-out: permeability
[10] = Cmax in CD-1 mouse liver at 10 mg/kg; format: ADME, organism-based; set-up: dose 10 mg/kg
[11] = Kinetic aqueous solubility of compound by pION uSOL method at pH 7.4; conditions: buffer
[12] = Cmax in CD-1 mouse plasma at 10 mg/kg; format: ADME, organism-based; set-up: dose 10 mg/kg
[13] = Ratio of AUClast in liver to plasma in CD-1 mouse at 1 mg/kg; format: ADME, organism-based
[14] = Tmax in CD-1 mouse plasma at 1 mg/kg; format: ADME, organism-based
[15] = AUClast in CD-1 mouse plasma at 1 mg/kg; format: ADME, organism-based; set-up: time 0 - last, dose 1 mg/kg
[16] = Cmax in CD-1 mouse liver at 1 mg/kg; format: ADME, organism-based; set-up: dose 1 mg/kg
[17] = Tmax in CD-1 mouse liver at 1 mg/kg; format: ADME, organism-based
[18] = Ratio of AUClast in brain to plasma in CD-1 mouse at 1 mg/kg; format: ADME, organism-based
[19] = AUClast in CD-1 mouse brain at 1 mg/kg; format: ADME, organism-based; set-up: time 0 - last, dose 1 mg/kg
[20] = Cmax in CD-1 mouse brain at 1 mg/kg; format: ADME, organism-based; set-up: dose 1 mg/kg
[21] = AUClast in CD-1 mouse liver at 1 mg/kg; format: ADME, organism-based; set-up: time 0 - last, dose 1 mg/kg
[22] = Tmax in CD-1 mouse brain at 1 mg/kg; format: ADME, organism-based

Row | Papp [9] [×10⁻⁶ cm/s] | solubility kinetic [11] [µg/mL] | SMILES | other results
1 | 32 | 3.32 (≈ 6.48 µM) | Clc1cc(CN(C2CCNCC2)C2CC(c3ccc(Br)cc3)C2)ccc1Br (stereo not drawn) | Tmax [1]: 0.5 h; AUC(0-t) [2]: 10500 ng·h/mL; Kp [3]: 76; AUC(0-t) [4]: 793000 ng·h/mL; Tmax [5]: 24 h; Tmax [6]: 1 h; AUC(0-t) [7]: 56800 ng·h/mL; Kp [8]: 54; Cmax [10]: 57400 ng/mL; Cmax [12]: 759 ng/mL
2 |  | 13.3 (≈ 29.7 µM) | Cc1ccc(C2CC(N(Cc3ccc(Br)c(Cl)c3)C3CCCNC3)C2)cc1 (stereo not drawn) | 
3 |  | 9.71 (≈ 21.7 µM) | Cc1ccc([C@H]2C[C@@H](N(Cc3ccc(Br)c(Cl)c3)C3CCNCC3)C2)cc1 | 
4 |  | < 1 | CC(=O)N1CCC(N(Cc2ccc(Br)c(Cl)c2)C2CC(c3ccc(C)cc3)C2)CC1 (stereo not drawn) | permeability [9]: 1909 10^-6 cm/s
5 | 14 | 3.94 (≈ 7.68 µM) | Clc1cc(CN(C2CCNCC2)C2CC(c3cccc(Br)c3)C2)ccc1Br (stereo not drawn) | 
6 | 818 |  | Cc1ccc(C2CC(N(Cc3ccc(Br)c(Cl)c3)C3CCC(N)CC3)C2)cc1 (stereo not drawn) | 
7 | 123 | 7.26 (≈ 15.8 µM) | Cc1ccc(C2CC(N(Cc3ccc(Br)c(Cl)c3)C3CC4CNC3C4)C2)cc1 (stereo not drawn) | 
8 | 398 |  | Fc1ccc(C2CC(N(Cc3ccc(Br)c(Cl)c3)C3CCNCC3)C2)cc1 (stereo not drawn) | 
9 | < 6.4 | < 1 | Cc1ccc(C2CC(N(Cc3ccc(Br)c(Cl)c3)C3CCOCC3)C2)cc1 (stereo not drawn) | 
10 | < 23.1 | 15.4 (≈ 31.4 µM) | Cc1ccc(C2CC(N(Cc3ccc(Br)c(Cl)c3)C3CCN(C(C)C)CC3)C2)cc1 (stereo not drawn) | 
11 | 806 | 18.2 (≈ 40.6 µM) | Cc1ccc(C2CC(N(Cc3ccc(Br)c(Cl)c3)C3CCNCC3)C2)cc1 (stereo not drawn) | 
12 | 274 | 22.9 (≈ 49.7 µM) | Cc1ccc(C2CC(N(Cc3ccc(Br)c(Cl)c3)C3CCN(C)CC3)C2)cc1 (stereo not drawn) | 
13 |  | < 1 | Cc1ccc(C2CC(N(Cc3ccc(Br)c(Cl)c3)C3C4CCC3CNC4)C2)cc1 (stereo not drawn) | 
14 |  | 23.2 (≈ 53.5 µM) | Cc1ccc(C2CC(N(Cc3ccc(Br)c(Cl)c3)C3CCNC3)C2)cc1 (stereo not drawn) | 
15 |  | 1.09 (≈ 2.43 µM) | Cc1ccc([C@H]2C[C@H](N(Cc3ccc(Br)c(Cl)c3)C3CCNCC3)C2)cc1 | Kp [13]: 35; Tmax [14]: 0.167 h; AUC(0-t) [15]: 275 ng·h/mL; Cmax [16]: 1850 ng/mL; Tmax [17]: 2 h; Kp [18]: 11; AUC(0-t) [19]: 3000 ng·h/mL; Cmax [20]: 153 ng/mL; AUC(0-t) [21]: 9570 ng·h/mL; Tmax [22]: 1.5 h
16 |  | 4 (≈ 8.54 µM) | Clc1cccc(C2CC(N(Cc3ccc(Br)c(Cl)c3)C3CCNCC3)C2)c1 (stereo not drawn) | 
17 | 265 |  | Cc1cccc(C2CC(N(Cc3ccc(Br)c(Cl)c3)C3CCNCC3)C2)c1 (stereo not drawn) | 
18 | 666 | 25.6 (≈ 55.5 µM) | Cc1ccc(C2CC(N(Cc3ccc(Br)c(Cl)c3)C3CCCNCC3)C2)cc1 (stereo not drawn) | 

Row | SMILES | Papp [9] [×10⁻⁶ cm/s] | solubility kinetic [11] [µg/mL] | other results
19 | Cc1ccc(C2CC(N(Cc3ccc(Br)c(Cl)c3)C3CC4CCC(C3)N4)C2)cc1 (stereo not drawn) |  | 11.1 (≈ 23.4 µM) | 
